Reference: PubChem BioAssay AID1919013 (Molecular Pharmacology Branch, DTP, NCI, 2023)

System: LG0703-F498-PDC complex spheroid growth
Assay: Anticancer human tumor LG0703-F498-PDC patient-derived lung adenocarcinoma cell line growth inhibition [AhR]
Details: for IC50: curve of first compound; for viability, T/C: stronger effect = lower value
How it was run: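 Spheroids combined tumor cells with HUVEC endothelial cells and human MSCs as stroma. AhR antagonists were paired with standard or investigational drugs, each dosed in half-log steps down from near clinical Cmax, or from 10 microM where Cmax was unknown.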

[1] = second compound 0.1 µM, first compound 0.0316 µM
[2] = second compound 0.1 µM, first compound 0.1 µM
[3] = second compound 0.1 µM, first compound 0.316 µM
[4] = second compound 0.1 µM, first compound 1 µM
[5] = second compound 0.1 µM, first compound 3.16 µM
[6] = second compound 0.1 µM, first compound 10 µM
[7] = second compound 0.316 µM, first compound 0.0316 µM
[8] = second compound 0.316 µM, first compound 0.1 µM
[9] = second compound 0.316 µM, first compound 0.316 µM
[10] = second compound 0.316 µM, first compound 1 µM
[11] = second compound 0.316 µM, first compound 3.16 µM
[12] = second compound 0.316 µM, first compound 10 µM
[13] = second compound 1 µM, first compound 0.0316 µM
[14] = second compound 1 µM, first compound 0.1 µM
[15] = second compound 1 µM, first compound 0.316 µM
[16] = second compound 1 µM, first compound 1 µM
[17] = second compound 1 µM, first compound 3.16 µM
[18] = second compound 1 µM, first compound 10 µM
[19] = second compound 3.16 µM, first compound 0.0316 µM
[20] = second compound 3.16 µM, first compound 0.1 µM
[21] = second compound 3.16 µM, first compound 0.316 µM
[22] = second compound 3.16 µM, first compound 1 µM
[23] = second compound 3.16 µM, first compound 3.16 µM
[24] = second compound 3.16 µM, first compound 10 µM
[25] = second compound 10 µM, first compound 0.0316 µM
[26] = second compound 10 µM, first compound 0.1 µM
[27] = second compound 10 µM, first compound 0.316 µM
[28] = second compound 10 µM, first compound 1 µM
[29] = second compound 10 µM, first compound 3.16 µM
[30] = second compound 10 µM, first compound 10 µM
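Further: luminescence taken as a proxy for viable cell amount.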
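Wherever viability, T/C is given: percent of DMSO vehicle control where 100% means growth equal to vehicle.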

Row | SMILES | IC50 (second compound 0.1 µM) [µM] | IC50 (second compound 0.316 µM) [µM] | IC50 (second compound 1 µM) [µM] | IC50 (second compound 3.16 µM) [µM] | IC50 (second compound 10 µM) [µM] | viability, T/C [1] [%] | viability, T/C [2] [%] | viability, T/C [3] [%] | viability, T/C [4] [%] | viability, T/C [5] [%] | viability, T/C [6] [%] | viability, T/C [7] [%] | viability, T/C [8] [%] | viability, T/C [9] [%] | viability, T/C [13] [%] | viability, T/C [14] [%] | viability, T/C [19] [%] | viability, T/C [20] [%] | viability, T/C [25] [%] | viability, T/C [26] [%] | also measured
1 | COc1cc(Nc2ncc3c(n2)-c2ccc(Cl)cc2C(c2c(F)cccc2OC)=NC3)ccc1C(=O)O + Cc1ccccc1N=Nc1ccc(NC(=O)c2ccnn2C)c(C)c1 | > 10 | 5.36 | 6.05 | 4.05 | 5.02 | 93.2 | 79.5 | 60.5 | 68.5 | 67.9 | 45.3 | 84.4 | 82.2 | 70.9 | 86.6 | 82.6 | 73.9 | 71.8 | 70.9 | 61.5 | viability, T/C [10]: 74%; viability, T/C [11]: 57.7%; viability, T/C [12]: 39.7%; viability, T/C [15]: 65.4%; viability, T/C [16]: 65.3%; viability, T/C [17]: 54.2%; viability, T/C [18]: 46%; viability, T/C [21]: 61.3%; viability, T/C [22]: 62.5%; viability, T/C [23]: 53.8%; viability, T/C [24]: 40.8%; viability, T/C [27]: 62.5%; viability, T/C [28]: 70.4%; viability, T/C [29]: 55.7%; viability, T/C [30]: 38%
2 | Cn1ncnc1C1c2n[nH]c(=O)c3cc(F)cc(c23)NC1c1ccc(F)cc1 (stereo not given) + Cc1ccccc1N=Nc1ccc(NC(=O)c2ccnn2C)c(C)c1 | > 0.1 | > 0.1 | > 0.1 | > 0.1 | > 0.1 | 104 | 89.7 | – | – | – | – | 85.5 | 88.1 | – | 95.9 | 83.1 | 79.7 | 75.9 | 79.4 | 79.5 | viability, T/C (second compound 0.1 µM, first compound 0.000316 µM): 97.2%; viability, T/C (second compound 0.1 µM, first compound 0.001 µM): 88.6%; viability, T/C (second compound 0.1 µM, first compound 0.00316 µM): 103%; viability, T/C (second compound 0.1 µM, first compound 0.01 µM): 95.2%; viability, T/C (second compound 0.316 µM, first compound 0.000316 µM): 93.8%; viability, T/C (second compound 0.316 µM, first compound 0.001 µM): 98.1%; viability, T/C (second compound 0.316 µM, first compound 0.00316 µM): 92.6%; viability, T/C (second compound 0.316 µM, first compound 0.01 µM): 94.3%; viability, T/C (second compound 1 µM, first compound 0.000316 µM): 93.5%; viability, T/C (second compound 1 µM, first compound 0.001 µM): 89.4%; viability, T/C (second compound 1 µM, first compound 0.00316 µM): 83.3%; viability, T/C (second compound 1 µM, first compound 0.01 µM): 79.6%; viability, T/C (second compound 3.16 µM, first compound 0.000316 µM): 84.9%; viability, T/C (second compound 3.16 µM, first compound 0.001 µM): 79.9%; viability, T/C (second compound 3.16 µM, first compound 0.00316 µM): 88%; viability, T/C (second compound 3.16 µM, first compound 0.01 µM): 78.3%; viability, T/C (second compound 10 µM, first compound 0.000316 µM): 84.2%; viability, T/C (second compound 10 µM, first compound 0.001 µM): 85.2%; viability, T/C (second compound 10 µM, first compound 0.00316 µM): 77.9%; viability, T/C (second compound 10 µM, first compound 0.01 µM): 85.9%
3 | NS(=O)(=O)OCC1CC(n2ccc3c(NC4CCc5ccccc54)ncnc32)CC1O (stereo not given) + Cc1ccccc1N=Nc1ccc(NC(=O)c2ccnn2C)c(C)c1 | 7.52 | 6.76 | 3.06 | 1.08 | 1.31 | 100 | 94.1 | 97.9 | 90.8 | 64.4 | 45.2 | 102 | 99.8 | 103 | 96 | 102 | 93.2 | 99.6 | 100 | 82.7 | viability, T/C [10]: 81.7%; viability, T/C [11]: 68.5%; viability, T/C [12]: 41%; viability, T/C [15]: 99%; viability, T/C [16]: 74.4%; viability, T/C [17]: 51.5%; viability, T/C [18]: 38.4%; viability, T/C [21]: 67%; viability, T/C [22]: 55.6%; viability, T/C [23]: 42.1%; viability, T/C [24]: 39.6%; viability, T/C [27]: 63.7%; viability, T/C [28]: 54.5%; viability, T/C [29]: 41.4%; viability, T/C [30]: 32%
4 | O=C(C=Cc1cccc(S(=O)(=O)Nc2ccccc2)c1)NO + Cc1ccccc1N=Nc1ccc(NC(=O)c2ccnn2C)c(C)c1 | 0.828 | 0.809 | 0.921 | 0.901 | 1.28 | 106 | 123 | 84 | 43.9 | 12.4 | 2.33 | 110 | 99.7 | 81.6 | 122 | 111 | 97.2 | 113 | 103 | 101 | viability, T/C [10]: 42.9%; viability, T/C [11]: 13.5%; viability, T/C [12]: 2.43%; viability, T/C [15]: 83.9%; viability, T/C [16]: 50.4%; viability, T/C [17]: 12.6%; viability, T/C [18]: 2.97%; viability, T/C [21]: 86.5%; viability, T/C [22]: 44.8%; viability, T/C [23]: 17.8%; viability, T/C [24]: 2.8%; viability, T/C [27]: 74.7%; viability, T/C [28]: 60.3%; viability, T/C [29]: 25.9%; viability, T/C [30]: 6.34%
